In ChEMBL document CHEMBL1201862, “PubChem BioAssay data set” (2004):
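Interpolation was linear, between the two tested concentrations surrounding the appropriate level; five concentrations were tested over 48 hours in 96-well plates. Abbreviation: GI50, concentration required for 50% inhibition of growth.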 Calls of active or inactive are those of the source. Rule as the data show it: active = GI50 up to about 1.1 µM and inactive = higher.

How the values were obtained:
Assay in all cases: NCI-60 cell line screen, 48 h
786-0 = test system: 786-0
A498 = test system: A498
A549 = test system: A549
ACHN = test system: ACHN
BT-549 = test system: BT-549
CAKI-1 = test system: CAKI-1
CCRF-CEM = test system: CCRF-CEM
COLO 205 = test system: COLO 205
DU-145 = test system: DU-145
EKVX = test system: EKVX
HCC 2998 = test system: HCC 2998
HCT-116 = test system: HCT-116
HCT-15 = test system: HCT-15
HL-60 = test system: HL-60
HOP-62 = test system: HOP-62
HOP-92 = test system: HOP-92
HT-29 = test system: HT-29
Hs-578T = test system: Hs-578T
IGROV-1 = test system: IGROV-1
K562 = test system: K562
KM12 = test system: KM12
LOX IMVI = test system: LOX IMVI
M14 = test system: M14
MCF7 = test system: MCF7
MDA-MB-231 = test system: MDA-MB-231
MDA-MB-435 = test system: MDA-MB-435
MDA-N = test system: MDA-N
MOLT-4 = test system: MOLT-4
Malme-3M = test system: Malme-3M
NCI-H226 = test system: NCI-H226
NCI-H23 = test system: NCI-H23
NCI-H460 = test system: NCI-H460
NCI-H522 = test system: NCI-H522
NCI/ADR-RES = test system: NCI/ADR-RES
OVCAR-3 = test system: OVCAR-3
OVCAR-4 = test system: OVCAR-4
OVCAR-5 = test system: OVCAR-5
OVCAR-8 = test system: OVCAR-8
PC-3 = test system: PC-3
RPMI-8226 = test system: RPMI-8226
RXF 393 = test system: RXF 393
SF-268 = test system: SF-268
SF-295 = test system: SF-295
SF-539 = test system: SF-539
SK-MEL-28 = test system: SK-MEL-28
SK-MEL-2 = test system: SK-MEL-2
SK-MEL-5 = test system: SK-MEL-5
SK-OV-3 = test system: SK-OV-3
SN12C = test system: SN12C
SNB-19 = test system: SNB-19
SNB-75 = test system: SNB-75
SR = test system: SR
SW-620 = test system: SW-620
T47D = test system: T47D
TK-10 = test system: TK-10
U-251 = test system: U-251
UACC-257 = test system: UACC-257
UO-31 = test system: UO-31
UACC-62 = test system: UACC-62

For `Oc1ccc(Cn2c(-c3ccc(O)c(O)c3)nc3ccccc32)cc1O`, the GI50 (786-0) was 9.44 µM (inactive), the GI50 (A498) was 90.2 µM (inactive) and the GI50 (A549) was 18.2 µM (inactive). For the same compound, the GI50 (ACHN) was 10.9 µM (inactive), the GI50 (BT-549) was 10.4 µM (inactive) and the GI50 (CAKI-1) was 15.5 µM (inactive). The GI50 (CCRF-CEM) was 3.37 µM (inactive), the GI50 (COLO 205) was 17.4 µM (inactive) and the GI50 (DU-145) was 24.5 µM (inactive). For the same compound, the GI50 (EKVX) was 27.9 µM (inactive), the GI50 (HCC 2998) was 13.9 µM (inactive) and the GI50 (HCT-116) was 4.72 µM (inactive). The GI50 (HCT-15) was 7.48 µM, the GI50 (HL-60) was 16.8 µM (inactive) and the GI50 (HOP-62) was 14 µM (inactive). The GI50 (HOP-92) was 6.59 µM (inactive), the GI50 (HT-29) was 30.3 µM (inactive) and the GI50 (Hs-578T) was 5.79 µM (inactive). The GI50 (IGROV-1) was 11.9 µM (inactive), the GI50 (K562) was 10.8 µM (inactive) and the GI50 (KM12) was 13.5 µM (inactive). The GI50 (LOX IMVI) was 11.8 µM (inactive), the GI50 (M14) was 13.9 µM (inactive) and the GI50 (MCF7) was 30.1 µM (inactive). For the same compound, the GI50 (MDA-MB-231) was 12.3 µM (inactive), the GI50 (MDA-MB-435) was 12.8 µM (inactive) and the GI50 (MDA-N) was 15 µM (inactive). For the same compound, the GI50 (MOLT-4) was 2.52 µM (inactive), the GI50 (Malme-3M) was 9.12 µM (inactive) and the GI50 (NCI-H226) was 7.43 µM (inactive). The GI50 (NCI-H23) was 23.3 µM (inactive), the GI50 (NCI-H460) was 15.8 µM (inactive) and the GI50 (NCI-H522) was 4.67 µM (inactive). For the same compound, the GI50 (NCI/ADR-RES) was 32.9 µM (inactive), the GI50 (OVCAR-3) was 14.4 µM (inactive) and the GI50 (OVCAR-4) was 4.9 µM (inactive). For the same compound, the GI50 (OVCAR-5) was 38.1 µM (inactive), the GI50 (OVCAR-8) was 7.76 µM (inactive) and the GI50 (PC-3) was 22.1 µM (inactive). The GI50 (RPMI-8226) was 13.3 µM (inactive), the GI50 (RXF 393) was 29.4 µM (inactive) and the GI50 (SF-268) was 11.5 µM (inactive). For the same compound, the GI50 (SF-295) was 23.6 µM (inactive), the GI50 (SF-539) was 7.45 µM (inactive) and the GI50 (SK-MEL-28) was 22.1 µM (inactive). For the same compound, the GI50 (SK-MEL-2) was 18.4 µM (inactive), the GI50 (SK-MEL-5) was 14.7 µM (inactive) and the GI50 (SK-OV-3) was 18.6 µM (inactive). For the same compound, the GI50 (SN12C) was 10.1 µM (inactive), the GI50 (SNB-19) was 9.2 µM (inactive) and the GI50 (SNB-75) was 12.1 µM (inactive). For the same compound, the GI50 (SR) was 3.72 µM (inactive), the GI50 (SW-620) was 13.4 µM (inactive) and the GI50 (T47D) was 10.6 µM (inactive). The GI50 (TK-10) was 9.64 µM (inactive), the GI50 (U-251) was 5.09 µM (inactive) and the GI50 (UACC-257) was 33 µM (inactive). For the same compound, the GI50 (UO-31) was 10.8 µM (inactive).

With `CCCCCC(=O)OC[n+]1cccc(-c2c(COC(=O)NC(C)C)c(COC(=O)NC(C)C)c3n2CCC3)c1` the GI50 (786-0) was 30.7 µM (inactive), the GI50 (A498) was 15.9 µM (inactive) and the GI50 (A549) was 70.5 µM (inactive). For the same compound, the GI50 (ACHN) was 23.1 µM (inactive), the GI50 (BT-549) was 38.1 µM (inactive) and the GI50 (CAKI-1) was 10.5 µM (inactive). For the same compound, the GI50 (CCRF-CEM) was 6.58 µM (inactive), the GI50 (COLO 205) was 62.5 µM (inactive) and the GI50 (DU-145) was 35.4 µM (inactive). The GI50 (EKVX) was > 100 µM (inactive), the GI50 (HCC 2998) was > 100 µM (inactive) and the GI50 (HCT-116) was 45.3 µM (inactive). For the same compound, the GI50 (HCT-15) was 56.1 µM, the GI50 (HL-60) was 10.2 µM (inactive) and the GI50 (HOP-62) was 44.1 µM (inactive). The GI50 (HOP-92) was 27.4 µM (inactive), the GI50 (HT-29) was 46.9 µM (inactive) and the GI50 (Hs-578T) was 69.3 µM (inactive). The GI50 (IGROV-1) was > 34.2 µM (inactive), the GI50 (K562) was 37.2 µM (inactive) and the GI50 (KM12) was > 100 µM (inactive). For the same compound, the GI50 (LOX IMVI) was 24 µM (inactive), the GI50 (M14) was 52.1 µM (inactive) and the GI50 (MCF7) was 31.6 µM (inactive). The GI50 (MDA-MB-231) was 60.4 µM (inactive), the GI50 (MDA-MB-435) was > 100 µM (inactive) and the GI50 (MDA-N) was > 100 µM (inactive). The GI50 (MOLT-4) was 10.4 µM (inactive), the GI50 (Malme-3M) was 43.2 µM (inactive) and the GI50 (NCI-H226) was > 64.4 µM (inactive). For the same compound, the GI50 (NCI-H23) was 28.8 µM (inactive), the GI50 (NCI-H460) was 16.6 µM (inactive) and the GI50 (NCI-H522) was 15.6 µM (inactive). The GI50 (NCI/ADR-RES) was 49.4 µM (inactive), the GI50 (OVCAR-3) was 54.1 µM (inactive) and the GI50 (OVCAR-4) was 42.4 µM (inactive). The GI50 (OVCAR-5) was > 63.5 µM (inactive), the GI50 (OVCAR-8) was 20.2 µM (inactive) and the GI50 (PC-3) was 44.3 µM (inactive). For the same compound, the GI50 (RPMI-8226) was 32.7 µM (inactive), the GI50 (RXF 393) was 26.4 µM (inactive) and the GI50 (SF-268) was 28.5 µM (inactive). The GI50 (SF-295) was 59 µM (inactive), the GI50 (SF-539) was 27.9 µM (inactive) and the GI50 (SK-MEL-28) was > 100 µM (inactive). For the same compound, the GI50 (SK-MEL-2) was 26.7 µM (inactive), the GI50 (SK-MEL-5) was 40.6 µM (inactive) and the GI50 (SK-OV-3) was > 57.3 µM (inactive). For the same compound, the GI50 (SN12C) was 30.6 µM (inactive), the GI50 (SNB-19) was 74.3 µM (inactive) and the GI50 (SNB-75) was 33.7 µM (inactive). For the same compound, the GI50 (SR) was 5.78 µM (inactive), the GI50 (SW-620) was 31.7 µM (inactive) and the GI50 (T47D) was > 61.8 µM (inactive). For the same compound, the GI50 (TK-10) was > 84.1 µM (inactive), the GI50 (U-251) was > 61.5 µM (inactive) and the GI50 (UACC-257) was > 100 µM (inactive). For the same compound, the GI50 (UACC-62) was 23.4 µM (inactive) and the GI50 (UO-31) was 33.4 µM (inactive).

With `CCNC(=O)OCC1C2=C(C(=O)C(C)=C(N)C2=O)N2CC3C(N3C)C12OC` (stereo not given) the GI50 (786-0) was 10.1 µM (inactive), the GI50 (A498) was 20.9 µM (inactive) and the GI50 (A549) was 5.11 µM (inactive). For the same compound, the GI50 (ACHN) was 4.22 µM (inactive), the GI50 (BT-549) was 11.5 µM (inactive) and the GI50 (CAKI-1) was 3.95 µM (inactive). The GI50 (CCRF-CEM) was 4.21 µM (inactive), the GI50 (COLO 205) was 27.6 µM (inactive) and the GI50 (DU-145) was 4.1 µM (inactive). The GI50 (EKVX) was > 94.2 µM (inactive), the GI50 (HCC 2998) was 14.6 µM (inactive) and the GI50 (HCT-116) was 14.6 µM (inactive). For the same compound, the GI50 (HCT-15) was 14.6 µM, the GI50 (HL-60) was 3.94 µM (inactive) and the GI50 (HOP-62) was 6.44 µM (inactive). The GI50 (HOP-92) was > 75 µM (inactive), the GI50 (HT-29) was 18.5 µM (inactive) and the GI50 (Hs-578T) was > 100 µM (inactive). For the same compound, the GI50 (IGROV-1) was 18.5 µM (inactive), the GI50 (K562) was 25.5 µM (inactive) and the GI50 (LOX IMVI) was 13.7 µM (inactive). For the same compound, the GI50 (M14) was 9.86 µM (inactive), the GI50 (MCF7) was 4.95 µM (inactive) and the GI50 (MDA-MB-231) was > 100 µM (inactive). The GI50 (MDA-MB-435) was 75.7 µM (inactive), the GI50 (MDA-N) was > 88.5 µM (inactive) and the GI50 (MOLT-4) was 3.28 µM (inactive). The GI50 (Malme-3M) was 17.6 µM (inactive), the GI50 (NCI-H226) was > 87.7 µM (inactive) and the GI50 (NCI-H23) was 1.4 µM (inactive). For the same compound, the GI50 (NCI-H460) was 0.18 µM (active), the GI50 (NCI-H522) was 11.7 µM (inactive) and the GI50 (NCI/ADR-RES) was > 75.5 µM (inactive). The GI50 (OVCAR-3) was 21.9 µM (inactive), the GI50 (OVCAR-4) was 26.6 µM (inactive) and the GI50 (OVCAR-5) was > 72.6 µM (inactive). For the same compound, the GI50 (OVCAR-8) was 21.7 µM (inactive), the GI50 (PC-3) was 24.5 µM (inactive) and the GI50 (RPMI-8226) was 14.4 µM (inactive). For the same compound, the GI50 (RXF 393) was 32.5 µM (inactive), the GI50 (SF-268) was 15.7 µM (inactive) and the GI50 (SF-295) was 7.76 µM (inactive). For the same compound, the GI50 (SF-539) was 16.6 µM (inactive), the GI50 (SK-MEL-28) was > 81.7 µM (inactive) and the GI50 (SK-MEL-2) was 30.3 µM (inactive). For the same compound, the GI50 (SK-MEL-5) was 12.8 µM (inactive), the GI50 (SK-OV-3) was 27.4 µM (inactive) and the GI50 (SN12C) was 13.5 µM (inactive). For the same compound, the GI50 (SNB-19) was 24 µM (inactive), the GI50 (SNB-75) was 21.7 µM (inactive) and the GI50 (SR) was 1.48 µM (inactive). For the same compound, the GI50 (SW-620) was 9.93 µM (inactive), the GI50 (T47D) was 55.2 µM (inactive) and the GI50 (TK-10) was 60.1 µM (inactive). The GI50 (U-251) was 23.8 µM (inactive), the GI50 (UACC-257) was 62.4 µM (inactive) and the GI50 (UACC-62) was 11.9 µM (inactive). For the same compound, the GI50 (UO-31) was 19.5 µM (inactive).
